Where two headings read alike, the source gives them in different places.
T1: MCM6 winged-helix domain (WHD) C721S mutant, residues 708-821 (human, UniProt Q14566 708-821, C721S)
T1 sequence (looked up): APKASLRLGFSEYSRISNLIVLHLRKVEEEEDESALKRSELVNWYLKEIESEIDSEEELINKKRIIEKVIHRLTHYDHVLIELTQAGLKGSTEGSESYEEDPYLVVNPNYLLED


Experiments:
MCM6 = settings: ref [56], cited from earlier work
[1] = target: T1, MCM6 winged-helix domain (WHD) C721S …; experiment: fluorescence polarisation

| fold, competition of MBD-C against FITC-MBD-C relative to FITC-MBD-D [1] [fold] | Molecule | interaction with MCM6 (MCM6; both MBD-C and D regions mutated) | interaction with MCM6 (MCM6; either MBD-C or D regions deleted) |
| --- | --- | --- | --- |
| – | Bloom syndrome helicase [BLM] | weakened the interaction | do not interact |
| 1.7 | WLSSDVICI (peptide, UniProt P54132 230-238, looked up) [BLM MCM6 binding domain C peptide (BLM 230-238), unlabeled] | – | – |

Source: article PMC12176262 (The Febs Journal, 2025)
